In patent US20250042912A1, “NOVEL NON-FLUORINATED QUINOLONE COMPOUND AND USE THEREOF” (priority 2021, published 2025):
Values after ≈ are worked out from the molar mass of the structure shown.

Assays:
[1] = tested on: Staphylococcus epidermidis ATCC 35984; test: Minimum inhibitory concentration (MIC) assay, Staphylococcus epidermidis ATCC 35984; assay type: cell-based; details: ATCC35984, aerobic culture 35+/-2°C, 16 to 20 hours, read with naked eyes
Method: On the day of the experiment, the compound in the flask was dissolved in 100% DMSO until the concentration of mother liquor was 0.4 mg/mL. If the mother liquor was not used on the same day, it was stored at −80° C. for future use.
The compound mother liquor and standard antibiotics were subjected to 2-fold gradient dilution with corresponding solvents on a 96-microwell plate (V-bottom) to obtain 100× working solutions (Well 1 to Well 7) in sequence. Among them, the concentrations of the compound were 400 μg/mL, 200 μg/mL, 100 μg/mL, 50 μg/mL, 25 μg/mL, 12.5 μg/mL, 6.25 μg/mL, and 3.125 μg/mL. 100% DMSO was used as growth control (Well 8). As such, the compound motherplate was obtained.
One day before the experiment, aerobic bacteria (Staphylococcus epidermidis) stored in a cryogenic tube at −80° C. were scribed on an MHA (Cation-adjusted Mueller-Hinton agar) plate. The aerobic bacteria were placed in a 35+/−2° C. incubator for 18-24 hours of aerobic cultivation.
On the day of the experiment, the plate was taken out, clones were picked from the plate and suspended in physiological saline. Then, the turbidity of the bacterial suspension (containing 1.0-2.0×10^8 CFU/mL) was adjusted to OD600=0.2 by a turbidity meter. Then, the adjusted bacterial suspension was diluted to an appropriate concentration with the assay culture medium: about 5×10^5 CFU/mL for aerobic bacteria, and about 1×10^6 CFU/mL for anaerobic bacteria. As such, the inoculating solution was obtained.
2 μl of 2-fold series dilution of 100× high-concentration working solution was transferred from a compound mother plate (prepared in step 1) to a round-bottom 96-well plate, and then 198 μL of bacterial inoculating solution (prepared in step 2) was added to each well to obtain an MIC assay plate. Therefore, the final assay concentrations of the compound were 4 μg/mL, 2 μg/mL, 1 μg/mL, 0.5 μg/mL, 0.25 μg/mL, 0.125 μg/mL, 0.06 μg/mL and 0.03 μg/mL. The total volume of each well on the assay plate was 200 μL: containing 1% DMSO, about 5×10^5 CFU/mL of aerobic bacteria and about 1×10^6 CFU/mL of anaerobic bacteria.
All assay plates for aerobic bacteria were aerobically cultured at 35+/−2° C. for 16 to 20 hours, and all assay plates for anaerobic bacteria were anaerobically cultured in an anaerobic incubator at 35+/−2° C. for 48 hours.

[2] = tested on: acne model mice (Propionibacterium acnes ATCC 6919 injected into the left ear); test: Acne model in mice: auricular thickness, redness and swelling of the left ear; assay type: in vivo, Balb/C mice
Method: Experimental strain: Propionibacterium acnes ATCC 6919 (Beijing Biobw Biotechnology Co., Ltd.) Experimental animals: Balb/C mice (Zhejiang Vital River Laboratory Animal Technology Co., Ltd.) Balb/C mice were grouped and numbered, and adaptively fed for one week. On the day of modeling, Propionibacterium acnes was taken, and OD600 was measured using a microplate reader. BH1 culture medium was diluted to OD600=1 (about 5×10^8 CFU/mL), centrifuged to discard supernatant, and the remaining culture was diluted to 1×10^8 CFU/mL with PBS. Once the molding began, the mice were anesthetized with a small animal anesthesia machine, the air flow and isoflurane content of the anesthesia machine were adjusted, and the mice were placed in an anesthesia induction chamber for anesthesia induction. After there were no obvious signs of activity, the mice were taken out and their toes were clamped with tweezers or hemostatic forceps for toe pinching reaction testing, if there was no retraction pain response, the surgery could be performed. The anesthetized mice were placed on a mice plate and fixed, the air flow or isoflurane content was adjusted to maintain anesthesia (isoflurane anesthesia induction content of 3% to 4%, anesthesia maintenance content of 1% to 2%, and air flow rate of 300 mL/min to 500 mL/min). Blank control group: 20 μL of PBS was intracutaneously injected into the left ear of each mouse. Model group, drug group to be tested: 20 μL suspension of Propionibacterium acnes in PBS was intracutaneously injected into the left ear of each mouse. After the injection of Propionibacterium acnes, the mice in each group were administered according to the methods of administration and dosages described in Table 5 at 4 hours, 20 hours, 28 hours, and 44 hours. […] The drugs to be tested included Compound 6, Compound 7, and Compound 12, all of which were in a form of hydrochloride. In this experiment, Compound 6, Compound 7, and Compound 12 all referred to the corresponding hydrochloride drugs with a solvent of 40% DMSO+60% glycerol, the drugs were added into DMSO, heated to 100° C. in a water bath, and then glycerol was added thereto to obtain a bright yellow viscous solution. Administration area: Propionibacterium acnes was injected into the left ear. Administration time: the drugs were administrated at 4 hours, 20 hours, 28 hours, and 44 hours post-injection of Propionibacterium acnes, a total of 4 times. Balb/C mice were anesthetized with a small animal anesthesia machine and isoflurane in Compound 6 group, Compound 7 group, Compound 12 group, and model group. […] Auricular thickness measurement: after Propionibacterium acnes was injected for 48 hours, the auricular thicknesses of mice were measured with a vernier caliper.

- MIC [1]: 0.06 µg/mL (≈ 0.153 µM)
SMILES: CN(C)c1cc2c(cn1)-c1ccc3c(=O)c(C(=O)O)cn(C4CC4)c3c1COC2 [Compound 6]
- redness and swelling on the left ears of mice ([2]; Balb/C mice acne model, macroscopic, after treatment, drugs as hydrochloride, in words): reduced to varying degrees
- Auricular thickness (% of Blank) Mean ± SD ([2]; Balb/C mice, left ear, 48 hours after injection of Propionibacterium acnes, 15 μL applied at 4, 20, 28, 44 hours, drugs as hydrochloride): 112.71 ± 17.19 % of Blank
- Auricular thickness Mean ± SD ([2]; Balb/C mice, left ear, 48 hours after injection of Propionibacterium acnes, 15 μL applied at 4, 20, 28, 44 hours, drugs as hydrochloride in 40% DMSO+60% glycerol): 0.51 ± 0.08 mm
- auricular thicknesses of the left ears of mice after treatment ([2]; compared with acne model group, p<0.05, in words): significantly reduced
